According to patent US20200360391A1, “Medicinal Composition for Treating Intractable Heart Disease” (Osaka University, priority 2016, published 2020):
“Also recorded” adds a separate entry of the source. Where a name gives a salt, the structure may show the parent alone.

What was measured:
[1] = system: spontaneous dilated cardiomyopathy (J2N-k) hamster model; assay: Spontaneous dilated cardiomyopathy (J2N-k) hamster model, 8-week administration from 20 weeks of age (Tests 1-3): echocardiography, body weight; settings: for LVIDs 8 W: hydrochloride hydrate
Method in brief: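 Male J2N-k δ-glycan-deficient hamsters (delivered at 18 weeks; 2-week acclimation) were dosed by oral gavage twice daily for 8 weeks in 0.5% CMC-Na (G in distilled water; 5 mL/kg) at human-equivalent doses, e.g. cilostazol 1.7 mg/kg. Camostat PLGA preparation was given 10 mg/kg s.c. every 4 weeks. Echocardiographic EF/FS changes from baseline were assessed at 4 and 8 weeks versus vehicle.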

[2] = system: spontaneous dilated cardiomyopathy J2N-k baby hamsters; assay: J2N-k baby hamsters (Test 4): administration alone or in combination, echocardiography, body weight; type: in vivo, hamster; settings: for % FS / EF (%) / value of change in E.F. compared with E.F. at 0 W / value of change in F.S. compared with F.S. at 0 W: Test 4, dose O 0.17, C 3.3, E 15, orally twice daily, mean ± S.D.
Method: δ-Glycan-deficient spontaneous dilated cardiomyopathy (J2N-k) male hamsters (Japan SLC, Inc.) were delivered at 4 weeks of age. After a 1-week quarantine/acclimation, echocardiography was performed. The hamsters were grouped by stratified random assignment based on the EF values and the body weights so that each administration group was equalized.
Each test substance was individually administered twice daily (at an interval of 8 hours or more) by oral gavage, and echocardiography was performed 4 and 8 weeks after the start of administration (before dissection). Differences from the value before the start of administration (at the time of grouping) (amount of change: A) in each group were examined, and the cardiac function (EF value, FS %, etc.) was compared with that in the vehicle group (Group 1).
The doses were set according to the dose-setting basis in Test 3, and similarly orally administered twice daily. Effects of administration of combinations of two or three of carvedilol, which is a β-blocker widely used clinically, and ozagrel and/or pirfenidone were examined.

rats [3] = settings: cited from earlier work
rats [4] = settings: subcutaneous administration in rats; cited from earlier work
[5] = cited from earlier work
[6] = system: rat coronary artery complete ischemia model; assay: Model of ischemia (MI) by rat coronary artery complete ligation (Tests 1 and 2): echocardiography, body weight; settings: for value of change in E.F. compared with E.F. on Day 1 / value of change in F.S. compared with F.S. on Day 1: B-MS 100, C-MS 50, F-MS 30 mg/kg s.c. single injection
[7] = MI Test 1, NOAEL doses, 7 Day, mean ± S.D.
[8] = MI Test 1, NOAEL doses, 14 Day, mean ± S.D.
[9] = MI Test 1, NOAEL doses, 29 Day, mean ± S.D.
[10] = MI Test 2, 14 Day, B 150, G 5, I 30, C 10 mg/kg p.o. b.i.d., mean ± S.D.
[11] = MI Test 2, 29 Day, B 150, G 5, I 30, C 10 mg/kg p.o. b.i.d., mean ± S.D.

## O=C(O)/C=C/c1ccc(Cn2ccnc2)cc1 [Compound C, Ozagrel hydrochloride hydrate]
[1]; Test 1, p.o. b.i.d.
  LVIDd 4 W: 7.1 mm
  LVIDd 8 W: 7.4 mm
  LVIDs 4 W: 5.9 mm
  LVIDs 8 W: 6.1 mm
[1]; Test 1, p.o. b.i.d., listed as ozagrel
  LVIDs 8 W: significantly lower
[1]; Test 3, clinical dose
  Cardiac function (EF, FS %) actual measured value or change rate compared with control, 4 W value: significant cardiac function improvement effect
[1]; Test 3, clinical dose, summary
  Cardiac function improvement effect: cardiac function improvement effect was observed
[1]; mg/kg twice per day, oral preparation
  Minimal effective dose (screening 2): 3.3 mg/kg
[2]; Test 4, clinical doses p.o. b.i.d., 8 weeks, hydrochloride hydrate
  Action on decrease in left ventricular systolic function: significant suppression action on a decrease in left ventricular systolic function; also recorded: action of significantly suppressing a decrease in left ventricular systolic function
[2]; Test 4, p.o. b.i.d., clinical dose
  Body weight 3 W: 85.4 g
[2]; 0 W (start of administration)
  % FS: 39.1 ± 2.7%
  EF (%): 77.3 ± 2.9%
[2]; 4 W
  % FS: 34.9 ± 1.5%
  EF (%): 72.3 ± 2.0%
  value of change in E.F. compared with E.F. at 0 W: <−5.0 ± 1.4> %
  value of change in F.S. compared with F.S. at 0 W: <−4.2 ± 1.4> %
[2]; 8 W
  % FS: 30.7 ± 2.0%
  EF (%): 66.6 ± 2.8%
  value of change in E.F. compared with E.F. at 0 W: <−10.7 ± 2.0> %
  value of change in F.S. compared with F.S. at 0 W: <−8.4 ± 1.6> %
Rats [3]; rats, 3 months
  No-observed-effect level: 150 mg/kg
Rats [3]; repeated oral administration in rats, duration per compound
  Dose at which toxic findings were observed: ≥ 500 mg/kg
Rats [4]
  LD50: 2049 mg/kg
[5]; camostat 600 mg daily, ozagrel 400 mg daily
  Safety at the daily amount: no safety problems except for slightly prolonged bleeding time
[5]; human, in vivo
  Abdominal / stomach / gastric discomfort cases: 0.1%
  Bleeding tendency cases: 0.1%
  Elevated AST (GOT) and/or ALT (GPT) / liver enzyme cases: 0.3%
  Itching / pruritus cases: 0.2%
  Nausea cases (cilostazol: nausea/vomiting): 0.3%
  Rash cases: 0.2%
[5]; share of cases evaluated for safety
  Cases with side effects (including laboratory test value abnormality): 2.0%
[6]; MI Test 1, 28-day repeated oral administration b.i.d., NOAEL-based doses
  Action on left ventricular systolic function: suppression action on the deterioration of left ventricular systolic function
[6]; MI Test 1, NOAEL doses, 1 Day (grouping), mean ± S.D.
  Body weight: 234.8 ± 8.3 g
[6]; [7]
  % FS: value of change compared with the value on Day 1: 0%
  Body weight: 240.0 ± 9.3 g
  EF: value of change compared with the value on Day 1: -1%
[6]; [8]
  % FS: value of change compared with the value on Day 1: -1%
  Body weight: 261.2 ± 10.8 g
  EF: value of change compared with the value on Day 1: -2%
[6]; MI Test 1, NOAEL doses, 21 Day, mean ± S.D.
  Body weight: 278.9 ± 12.5 g
[6]; [9]
  % FS: value of change compared with the value on Day 1: -3%
  Body weight: 299.8 ± 13.9 g
  EF: value of change compared with the value on Day 1: -5%
[6]; MI Test 2, Day 14 and Day 29
  EF actual measured value and/or amount of change compared with control: significantly higher
[6]; MI Test 2, oral b.i.d. 4 weeks or single subcutaneous administration
  Values of cardiac function (EF, FS %) compared with control: significantly higher
[6]; MI Test 2, 1 Day, B 150, G 5, I 30, C 10 mg/kg p.o. b.i.d., B MS 100, C MS 50, I MS 30 mg/kg s.c. single injection, mean
  Body weight: 240.1 g
[6]; MI Test 2, 7 Day, B 150, G 5, I 30, C 10 mg/kg p.o. b.i.d., B MS 100, C MS 50, I MS 30 mg/kg s.c. single injection, mean
  Body weight: 245.7 g
[6]; MI Test 2, 14 Day, B 150, G 5, I 30, C 10 mg/kg p.o. b.i.d., B MS 100, C MS 50, I MS 30 mg/kg s.c. single injection, mean
  Body weight: 273.3 g
[6]; [10]
  value of change in E.F. compared with E.F. on Day 1: <−4.9 ± 2.3> %
  value of change in F.S. compared with F.S. on Day 1: <−2.7 ± 1.3> %
[6]; MI Test 2, 21 Day, B 150, G 5, I 30, C 10 mg/kg p.o. b.i.d., B MS 100, C MS 50, I MS 30 mg/kg s.c. single injection, mean
  Body weight: 292.8 g
[6]; MI Test 2, 29 Day, B 150, G 5, I 30, C 10 mg/kg p.o. b.i.d., B MS 100, C MS 50, I MS 30 mg/kg s.c. single injection, mean
  Body weight: 310.4 g
[6]; [11]
  value of change in E.F. compared with E.F. on Day 1: <−10.0 ± 3.9> %
  value of change in F.S. compared with F.S. on Day 1: <−5.3 ± 2.1> %
